The source made the active and inactive calls.
Key:
[1] = target: T1, Insulin-degrading enzyme (Homo sapiens, UniProt P14735); assay: cellular IDE activation of Abeta substrate cleavage – fluorescence polarization, HEK cells, dose response (AID 588439); assay type: functional, cell-based
T1 sequence (P14735 whole entry): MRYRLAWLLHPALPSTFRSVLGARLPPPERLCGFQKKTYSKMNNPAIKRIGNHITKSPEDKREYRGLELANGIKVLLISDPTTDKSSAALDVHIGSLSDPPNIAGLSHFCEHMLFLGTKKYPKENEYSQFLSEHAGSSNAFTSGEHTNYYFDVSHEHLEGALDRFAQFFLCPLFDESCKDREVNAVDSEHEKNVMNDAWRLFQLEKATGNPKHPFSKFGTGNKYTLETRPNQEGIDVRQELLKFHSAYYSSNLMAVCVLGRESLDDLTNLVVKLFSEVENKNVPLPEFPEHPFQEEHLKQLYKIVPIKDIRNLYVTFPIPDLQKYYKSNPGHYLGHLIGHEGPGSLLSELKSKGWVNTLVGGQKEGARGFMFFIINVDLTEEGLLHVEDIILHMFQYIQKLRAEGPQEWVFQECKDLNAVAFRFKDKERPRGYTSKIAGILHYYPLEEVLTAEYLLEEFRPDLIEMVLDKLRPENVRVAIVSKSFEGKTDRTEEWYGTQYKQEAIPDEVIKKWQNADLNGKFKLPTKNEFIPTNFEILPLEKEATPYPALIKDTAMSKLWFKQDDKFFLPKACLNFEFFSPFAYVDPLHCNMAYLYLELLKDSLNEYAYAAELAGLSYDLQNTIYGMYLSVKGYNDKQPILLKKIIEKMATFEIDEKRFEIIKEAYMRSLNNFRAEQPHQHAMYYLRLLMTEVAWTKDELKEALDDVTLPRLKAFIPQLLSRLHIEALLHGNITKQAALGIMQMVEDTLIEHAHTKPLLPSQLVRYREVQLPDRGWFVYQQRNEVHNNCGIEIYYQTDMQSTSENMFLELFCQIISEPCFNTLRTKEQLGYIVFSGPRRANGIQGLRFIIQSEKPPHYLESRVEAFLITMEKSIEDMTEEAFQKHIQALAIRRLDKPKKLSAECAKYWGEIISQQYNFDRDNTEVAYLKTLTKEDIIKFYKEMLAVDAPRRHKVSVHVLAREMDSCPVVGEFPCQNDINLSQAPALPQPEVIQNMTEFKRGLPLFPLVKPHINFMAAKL

[2] = system: HEK293; assay: membrane integrity loss in HEK cells – cell-based, fluorescence, cytotoxicity control for IDE activator project, dose response (AID 588440); assay type: functional; conditions: Homo sapiens;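 also: cytotoxicity by LDH release measuring loss of membrane integrity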
[3] = target: T1, Insulin-degrading enzyme; assay: recombinant IDE activation, cell-free – biochemical, fluorescence polarization, counter-screen for IDE activator project, dose response (AID 588681)
[4] = system: HEK293; assay: optical interference in Abeta FP readout, dose response, artefact control for IDE activator project, biochemical, fluorescence polarization (AID 588442); assay type: functional, cell-based; conditions: Homo sapiens
[5] = target: Tyrosine-protein kinase receptor TYRO3 (Homo sapiens, UniProt Q06418); assay type: functional;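 also: TYRO3 value obtained as one member of a kinome-wide profiling panel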
[6] = target: Cyclin-dependent kinase 8 (Homo sapiens, UniProt P49336); assay: Navigating the Kinome. Panel member name: CDK8; assay type: functional
[7] = target: T2, Apoptotic protease-activating factor 1 (Homo sapiens, UniProt O14727); assay: SAR analysis of small molecule Activators of Apaf-1 in a Fluorescent assay.; assay type: functional; conditions: read-out: EC50_Mean;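 also: caspase-3 cleavage of fluorogenic Rh110 DEVD substrate downstream of apoptosome activation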
T2 sequence (O14727 whole entry): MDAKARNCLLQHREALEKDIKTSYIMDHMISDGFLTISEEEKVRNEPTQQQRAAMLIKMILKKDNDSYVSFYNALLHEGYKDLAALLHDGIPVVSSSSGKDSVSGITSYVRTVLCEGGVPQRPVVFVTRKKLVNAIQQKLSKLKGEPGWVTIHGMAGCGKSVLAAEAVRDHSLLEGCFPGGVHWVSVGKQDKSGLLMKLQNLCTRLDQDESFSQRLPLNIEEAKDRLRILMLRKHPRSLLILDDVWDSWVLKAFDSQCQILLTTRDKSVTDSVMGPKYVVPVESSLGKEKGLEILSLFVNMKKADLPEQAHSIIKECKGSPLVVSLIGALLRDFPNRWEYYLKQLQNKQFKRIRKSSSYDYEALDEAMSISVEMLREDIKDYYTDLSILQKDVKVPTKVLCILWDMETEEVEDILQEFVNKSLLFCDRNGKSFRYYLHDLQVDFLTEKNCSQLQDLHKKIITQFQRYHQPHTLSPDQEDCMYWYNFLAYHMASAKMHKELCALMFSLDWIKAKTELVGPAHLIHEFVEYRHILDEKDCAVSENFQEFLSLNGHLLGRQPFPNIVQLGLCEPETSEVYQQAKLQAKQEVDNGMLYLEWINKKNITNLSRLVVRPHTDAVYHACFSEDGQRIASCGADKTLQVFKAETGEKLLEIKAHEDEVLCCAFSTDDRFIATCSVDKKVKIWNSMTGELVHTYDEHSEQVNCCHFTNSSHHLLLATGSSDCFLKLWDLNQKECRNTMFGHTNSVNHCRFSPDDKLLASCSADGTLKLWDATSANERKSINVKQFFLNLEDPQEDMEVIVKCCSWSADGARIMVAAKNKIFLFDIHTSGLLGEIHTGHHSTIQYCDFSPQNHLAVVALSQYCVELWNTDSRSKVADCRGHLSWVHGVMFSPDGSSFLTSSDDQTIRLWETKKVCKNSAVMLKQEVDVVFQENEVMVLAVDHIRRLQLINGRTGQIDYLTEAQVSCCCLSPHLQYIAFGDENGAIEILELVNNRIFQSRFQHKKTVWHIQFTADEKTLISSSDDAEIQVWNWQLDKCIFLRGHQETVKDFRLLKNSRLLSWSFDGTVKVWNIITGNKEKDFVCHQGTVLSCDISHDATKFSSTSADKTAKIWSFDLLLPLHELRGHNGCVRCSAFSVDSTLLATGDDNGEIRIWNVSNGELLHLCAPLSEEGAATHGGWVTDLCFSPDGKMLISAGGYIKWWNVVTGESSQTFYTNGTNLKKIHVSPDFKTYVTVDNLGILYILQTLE

Tyrosine-protein kinase receptor TYRO3, sequence (Q06418 whole entry): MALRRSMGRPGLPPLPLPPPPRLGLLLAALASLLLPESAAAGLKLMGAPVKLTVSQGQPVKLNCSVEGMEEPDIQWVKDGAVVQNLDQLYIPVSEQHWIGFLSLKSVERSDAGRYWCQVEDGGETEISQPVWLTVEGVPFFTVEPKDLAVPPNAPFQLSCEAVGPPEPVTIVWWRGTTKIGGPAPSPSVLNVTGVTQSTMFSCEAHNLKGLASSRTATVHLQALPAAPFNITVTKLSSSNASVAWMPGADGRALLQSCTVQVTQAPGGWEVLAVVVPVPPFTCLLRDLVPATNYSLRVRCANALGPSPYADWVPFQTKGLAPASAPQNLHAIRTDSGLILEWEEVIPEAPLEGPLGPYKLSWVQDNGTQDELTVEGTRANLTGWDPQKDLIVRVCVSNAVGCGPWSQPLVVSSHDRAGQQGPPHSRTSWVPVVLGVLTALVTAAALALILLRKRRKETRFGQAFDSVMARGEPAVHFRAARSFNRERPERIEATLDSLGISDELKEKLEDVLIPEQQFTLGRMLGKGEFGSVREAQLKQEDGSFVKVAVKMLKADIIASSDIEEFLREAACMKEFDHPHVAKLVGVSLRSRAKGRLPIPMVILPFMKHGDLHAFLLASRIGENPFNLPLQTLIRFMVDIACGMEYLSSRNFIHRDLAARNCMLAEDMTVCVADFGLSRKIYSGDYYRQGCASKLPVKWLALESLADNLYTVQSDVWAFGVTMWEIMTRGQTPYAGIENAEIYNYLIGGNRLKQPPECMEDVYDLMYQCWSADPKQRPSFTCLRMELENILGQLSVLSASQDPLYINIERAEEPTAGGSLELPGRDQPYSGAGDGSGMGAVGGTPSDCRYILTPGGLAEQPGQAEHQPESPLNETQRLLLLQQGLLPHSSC
Cyclin-dependent kinase 8, sequence (P49336 whole entry): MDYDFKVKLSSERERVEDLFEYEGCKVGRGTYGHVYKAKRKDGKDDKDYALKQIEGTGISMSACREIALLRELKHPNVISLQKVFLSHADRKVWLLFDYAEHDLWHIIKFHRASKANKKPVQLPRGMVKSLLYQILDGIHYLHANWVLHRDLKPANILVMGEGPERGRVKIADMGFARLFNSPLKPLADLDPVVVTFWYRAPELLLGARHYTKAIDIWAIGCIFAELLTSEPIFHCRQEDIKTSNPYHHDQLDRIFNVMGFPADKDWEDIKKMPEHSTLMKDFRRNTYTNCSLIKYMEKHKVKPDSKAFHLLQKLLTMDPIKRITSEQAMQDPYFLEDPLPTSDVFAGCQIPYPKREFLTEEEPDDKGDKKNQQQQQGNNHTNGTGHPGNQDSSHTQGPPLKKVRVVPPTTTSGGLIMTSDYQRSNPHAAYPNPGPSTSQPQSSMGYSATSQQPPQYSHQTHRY

Ki [5] | Ki [6] | EC50 [7] | SMILES | EC50 [1] | IC50 [2] | EC50 [3] | EC50 [4]
 |  |  | CC(C)(O)C#Cc1ccccc1C(=O)NC(CC(N)=O)C(=O)O (stereo unspecified) | > 54.7 µM (inactive) | > 89.2 µM (inactive) | > 54.7 µM (inactive) | > 55.9 µM (inactive)
 |  |  | O=C(CN1C(=O)COc2ccc(S(=O)(=O)N3CCCC3)cc21)NCc1ccccn1 | > 54.7 µM (inactive) | > 89.2 µM (inactive) | > 54.7 µM (inactive) | > 54.7 µM (inactive)
1.58 µM (active) | 1.58 µM (active) |  | NC(=O)CCN1CCN(C2Cc3cc(Cl)ccc3Sc3cc(F)ccc32)CC1 (stereo unspecified) |  |  |  | 
 |  | > 100 µM (inactive) | Cc1ccc(N2C(=O)CC3(CC(c4ccccc4Cl)=NO3)C2=O)cc1 (stereo unspecified) |  |  |  | 
